Converted amounts (≈) assume the structure as drawn.
Columns and labels:
[1] = system: primary myometrial cells; test: Ca2+-mobilization assay, concentration-response; type: cell-based; conditions: Homo sapiens, read-out: Emax, Myometrial, inhibition of Ca2+-mobilization
[2] = In vitro therapeutic index; conditions: smallest cell viability IC50 among the three cell types / Ca2+ assay IC50
[3] = Solubility; type: physicochemical
[4] = Intrinsic clearance in liver microsomes; type: in vitro ADME; conditions: rat
[5] = system: mouse myometrial tissue; test: Ex vivo isometric myometrial contractility organ bath assay; conditions: for Emax: read-out: Emax, inhibition of myometrial contractions; for IC50: read-out: IC50, inhibition of myometrial contractions
[6] = Intrinsic clearance in liver microsomes; type: in vitro ADME; conditions: human
[7] = system: myometrial cells; test: Combination high-throughput Ca2+-mobilization assay; conditions: for synergy in combination Ca2+-mobilization assay: 8 x 8 dose matrices, Combenefit
[8] = MDCK permeability; type: in vitro ADME; conditions: dog
[9] = Human plasma protein binding; type: in vitro ADME
[10] = system: primary aortic vascular smooth muscle cells (VSMCs); test: Ca2+-mobilization assay, concentration-response; type: cell-based, human
[11] = Intrinsic clearance in liver microsomes; type: in vitro ADME; conditions: mouse
[12] = system: human myometrial tissue; test: Ex vivo isometric myometrial contractility organ bath assay; conditions: read-out: Emax, inhibition of myometrial contractions
[13] = system: mifepristone-induced mouse model of PTB; test: In vivo therapeutic efficacy in mifepristone-induced mouse model of PTB
[14] = system: CD-1 pregnant mice; test: Minimal effective dose of mifepristone to induce PTB; type: in vivo, mouse; conditions: s.c. on day 15 of pregnancy
[15] = system: mifepristone-induced mouse model of PTB; conditions: mifepristone 150 μg; prior study; cited from earlier work

Compound: COc1c(-c2coc3cc4c(cc3c2=O)CC(OC(C)=O)C(C)(C)O4)ccc2c1C=CC(C)(C)O2 (stereo not drawn) [MA, mundulone acetate]
- Emax [1]: 44.5%
- TI (therapeutic index) [2]: 8.8
- solubility [3]: 11 to 20 µM
- microsomal CLint [4]: 586 µL/min/mg
- Emax [5]: 27%
- IC50 [5]: > 100 µM
- microsomal CLint [6]: 27.2 µL/min/mg
- synergy in combination Ca2+-mobilization assay [7]: exhibited synergistic efficacy with only nifedipine
- fold enhancement in potency in combination ([7]; in combination with nifedipine): 2–3 fold
- fold improvement of efficacy in combination vs single-agent ([7]; in combination with nifedipine): 6 fold
- Papp [8]: 22.1 ×10⁻⁶ cm/s
- fraction unbound [9]: 0.001
- Emax, % difference ([10]; myometrial cells vs aorta VSMCs): 70%
- microsomal CLint [11]: 886 µL/min/mg

Compound: COc1c(-c2coc3cc4c(cc3c2=O)CC(O)C(C)(C)O4)ccc2c1C=CC(C)(C)O2 (stereo not drawn) [Mundulone, mundulone]
- Emax [12]: 57%
- Emax [1]: 80.5%
- TI (therapeutic index) [2]: 0.8
- solubility [3]: 21 to 40 µM (≈ 9.12 to 17.4 µg/mL)
- microsomal CLint [4]: 30.7 µL/min/mg
- Emax [5]: 70%
- IC50 [5]: 10 µM
- microsomal CLint [6]: < 20 µL/min/mg
- synergy in combination Ca2+-mobilization assay [7]: displayed synergism with atosiban and nifedipine
- fold improvement of efficacy in combination vs single-agent ([7]; in combination with atosiban): 2 fold
- fold enhancement in potency in combination ([7]; in combination with nifedipine): 2–3 fold
- fold improvement of efficacy in combination vs single-agent ([7]; in combination with nifedipine): 6 fold
- fold improvement of potency in combination vs single-agent ([7]; with either atosiban (FR 3.7:1) or nifedipine (FR 1:4.4)): 2–3 fold
- timing of delivery ([13]; 30 μg mifepristone, 6.5, 13, or 26 mg/kg twice daily s.c., dose-dependently, p = 0.0457): delayed the timing of delivery
- mortality ([13]; 26 mg/kg twice daily until the evening of day 17, 30 μg mifepristone): 100%
- signs of impaired health or mortality in treated mice ([13]; single-agent, twice daily): did not show signs of impaired health or mortality until treated with 26 mg/kg twice daily for two days
- Papp [8]: 49.4 ×10⁻⁶ cm/s
- fraction unbound [9]: 0.007
- IC50, Fold difference ([10]; aorta VSMCs vs myometrial cells): 2
- microsomal CLint [11]: 47.1 µL/min/mg

Compound: CC#C[C@]1(O)CC[C@H]2[C@@H]3CCC4=CC(=O)CCC4=C3[C@@H](c3ccc(N(C)C)cc3)C[C@@]21C [mifepristone]
- lowest dose required for 100% PTB rates [14]: 30 µg

Compound: COC(=O)C1=C(C)NC(C)=C(C(=O)OC)C1c1ccccc1[N+](=O)[O-] [nifedipine]
- delivery occurring post-mifepristone administration [15]: ≤ 25 h

From paper PMC10712649 (Pharmacological research, 2023)
